{"source": "patent US20260284086A1", "about": "“PHARMACEUTICAL COMPOSITION FOR TREATMENT OF INFLAMMATORY BOWEL DISEASE” (EA PHARMA CO., LTD., priority 2023, published 2026)", "key": {"[1]": {"target": "T1, MAdCAM-1 binding of lymphocytes (CD3-positive CD4-positive cells) (Homo sapiens, UniProt P13612+P26010)", "T1 construct": "endogenous in cells; host or cells: CD3-positive CD4-positive lymphocytes in heparinized whole blood of dosed healthy adult males", "T1 sequence (P13612 34-1032)": "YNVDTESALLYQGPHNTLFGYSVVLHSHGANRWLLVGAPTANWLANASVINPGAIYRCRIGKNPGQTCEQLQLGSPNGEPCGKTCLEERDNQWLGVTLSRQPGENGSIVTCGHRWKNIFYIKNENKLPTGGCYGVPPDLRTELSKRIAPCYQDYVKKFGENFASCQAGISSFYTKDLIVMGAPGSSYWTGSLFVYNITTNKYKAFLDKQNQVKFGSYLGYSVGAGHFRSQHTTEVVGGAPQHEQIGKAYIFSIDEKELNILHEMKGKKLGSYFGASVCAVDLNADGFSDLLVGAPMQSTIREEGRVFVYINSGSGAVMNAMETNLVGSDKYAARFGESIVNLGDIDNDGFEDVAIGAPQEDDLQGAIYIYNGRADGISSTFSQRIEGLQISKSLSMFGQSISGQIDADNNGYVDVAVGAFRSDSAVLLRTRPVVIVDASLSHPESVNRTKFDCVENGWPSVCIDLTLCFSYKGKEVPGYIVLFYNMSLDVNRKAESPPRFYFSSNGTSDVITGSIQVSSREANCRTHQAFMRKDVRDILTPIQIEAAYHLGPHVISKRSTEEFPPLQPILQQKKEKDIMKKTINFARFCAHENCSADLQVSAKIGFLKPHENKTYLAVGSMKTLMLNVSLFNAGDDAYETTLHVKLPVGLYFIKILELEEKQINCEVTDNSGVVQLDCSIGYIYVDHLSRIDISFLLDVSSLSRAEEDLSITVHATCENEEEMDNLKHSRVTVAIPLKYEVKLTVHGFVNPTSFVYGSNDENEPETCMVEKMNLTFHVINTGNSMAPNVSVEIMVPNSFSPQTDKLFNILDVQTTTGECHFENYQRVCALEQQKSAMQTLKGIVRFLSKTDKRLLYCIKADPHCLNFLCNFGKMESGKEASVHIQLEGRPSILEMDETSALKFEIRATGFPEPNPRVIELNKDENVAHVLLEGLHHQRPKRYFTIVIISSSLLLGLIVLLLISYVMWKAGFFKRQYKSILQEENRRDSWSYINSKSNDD", "T1 sequence (P26010 20-798)": "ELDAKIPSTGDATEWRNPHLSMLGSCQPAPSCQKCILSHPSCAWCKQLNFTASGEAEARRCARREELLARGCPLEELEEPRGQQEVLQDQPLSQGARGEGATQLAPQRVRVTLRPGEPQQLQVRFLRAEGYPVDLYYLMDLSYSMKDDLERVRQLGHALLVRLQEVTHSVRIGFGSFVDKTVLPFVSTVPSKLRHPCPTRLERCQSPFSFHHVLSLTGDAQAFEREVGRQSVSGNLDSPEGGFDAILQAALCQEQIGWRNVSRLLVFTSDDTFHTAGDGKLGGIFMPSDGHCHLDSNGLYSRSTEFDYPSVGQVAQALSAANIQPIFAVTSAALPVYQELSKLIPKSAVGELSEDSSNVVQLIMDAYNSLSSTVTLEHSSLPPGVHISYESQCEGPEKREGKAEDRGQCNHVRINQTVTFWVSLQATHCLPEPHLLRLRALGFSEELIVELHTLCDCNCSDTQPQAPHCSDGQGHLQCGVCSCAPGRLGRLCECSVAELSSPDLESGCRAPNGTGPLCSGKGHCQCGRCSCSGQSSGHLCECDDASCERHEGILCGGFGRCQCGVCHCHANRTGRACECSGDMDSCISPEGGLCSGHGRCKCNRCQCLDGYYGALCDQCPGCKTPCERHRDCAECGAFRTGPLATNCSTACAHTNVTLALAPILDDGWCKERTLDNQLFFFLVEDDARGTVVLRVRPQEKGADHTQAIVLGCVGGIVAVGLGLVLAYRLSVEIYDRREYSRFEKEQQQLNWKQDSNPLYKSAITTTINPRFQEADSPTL", "experiment": "Ex vivo integrin inhibitory activity: MAdCAM-1 binding inhibition rate of lymphocytes in plasma (flow cytometry)", "assay_type": "cell-based", "details": "for IC90: CD4 positive", "protocol": "[MAdCAM-1 Binding Inhibition Rate (PD) of Lymphocytes in Plasma and IC90, IC50]\nThe MAdCAM-1 binding rate of lymphocytes in plasma was measured using a validated measurement method using the obtained blood samples, and the MAdCAM-1 binding inhibition rate of lymphocytes in plasma was calculated using Excel. Specifically, 5 μL of an 80 mM MnCl2 solution was added to 90 μL of heparinized blood and incubated at room temperature for 10 minutes. A volume of 5 μL of 200 μg/mL recombinant human MAdCAM-1/Fc (R&D Systems) was added to make a total volume of 100 μL, and the mixture was incubated at room temperature for 30 minutes. Subsequently, 1900 μL of BD Phosflow Lyse/Fix Buffer 5× (BD Biosciences) was added, and hemolysis and fixation were performed at 37° C. for 10 minutes. After centrifugation for 5 minutes, the supernatant was removed, and 2000 μL of RPMI-1640 medium supplemented with 10% inactivated fetal bovine serum (hereinafter referred to as medium) was added. After centrifugation for 5 minutes, the supernatant was removed and washed. After washing again with the medium, 50 μL of Brilliant Stain Buffer (BD Biosciences), 1.25 μL of MAdCAM-1 FITC (Hycult Biotech), 5 μL of CD4 PE (BD Biosciences), 2.5 μL of CD45RO APC (UCHL1) (BioLegend), 5 μL of CD3 BV421 (SK7) (BioLegend), and 2.5 μL of CD45 BV510 (HI30) (BioLegend) were added, and the mixture was incubated for 30 minutes. After washing with Stain Buffer (BSA) (BD Biosciences), the percentage of MAdCAM-1-positive cells among CD3-positive CD4-positive cells was measured using flow cytometry.\nThe percentage of MAdCAM-1-positive cells among CD3-positive CD4-positive cells was calculated by subtracting each measured value from the measured value when MAdCAM-1/Fc was not added as a control. The percentage of MAdCAM-1-positive cells among CD3-positive CD4-positive cells before administration of Compound (1) or placebo was set as 0% inhibition, and the MAdCAM-1 binding inhibition rate at each blood collection time point was obtained. Furthermore, the concentration IC50 that causes 50% binding inhibition and the concentration IC90 that causes 90% binding inhibition were calculated.\nThe MAdCAM-1 binding inhibition rate (PD) of lymphocytes in plasma was evaluated using collected blood, and the correlation with the plasma concentration (PK) of Compound (2) was plotted (FIG. 5)."}, "[2]": {"experiment": "Repeated Administration Study 2: C-SEDDS 200 mg twice daily for 10 days, plasma Compound (2)", "assay_type": "in vivo, human", "protocol": "(§1) This clinical trial was a single-center, randomized, double-blind, placebo-controlled, single and multiple ascending dose study with the primary objective of evaluating the safety and tolerability of Compound (1) when orally administered to healthy adult males.\n(§2) Screening tests were conducted within 28 to 3 days before administration of the investigational drug to confirm the eligibility of the subjects, and the subjects were hospitalized 2 days before administration. After hospitalization, tests were conducted from 2 days before administration to the day of administration to confirm that there were no problems with eligibility, and then Compound (1) or placebo was randomly assigned. The subjects in each cohort consisted of 8 people, of which 6 were assigned to Compound (1) and 2 were assigned to placebo, and they were administered the drug.\n(§3) Day 8, when repeated administration was started, corresponds to administration day 1 (Day 1), and day 17 corresponds to administration day 10 (Day 10). […]\n(§4) The plasma concentration of Compound (2) was measured using a validated measurement method. Specifically, plasma was separated from collected blood and processed, and then the plasma concentration was measured by an LC/MS/MS apparatus.\n(§5) For twice-daily administration of C-SEDDS, blood was further collected at 13, 14, 14.5, and 16 hours later to quantify Compound (2)."}, "[3]": {"experiment": "Repeated Administration Study 1: L-SEDDS 400 mg once daily for 10 days, plasma Compound (2)", "assay_type": "in vivo, human", "protocol": "as §1, §2, §3, §4, §5"}, "[4]": {"experiment": "PK Simulation Analysis 1 by Superposition Method (Phoenix WinNonlin NPS)", "parameters": "species or system human", "details": "Compound (1) 50 mg; 2.5 times the 20 mg prediction", "source_text": "The plasma concentration profile of Compound (2) on day 10 of repeated administration was predicted using the superposition method implemented in the Nonparametric Superposition (NPS) tool of the analysis software Phoenix WinNonlin, applying the single-dose results (Certara L.P.) (FIG. 4)."}, "[5]": {"experiment": "PK Simulation Analysis 2 by Superposition Method (200 mg twice daily)", "parameters": "species or system human", "details": "Day 10 of repeated administration", "protocol": "The plasma concentration of Compound (2) on day 10 of repeated administration at 200 mg twice daily (every 12 hours) was predicted using the superposition method implemented in the Nonparametric Superposition (NPS) tool of the analysis software Phoenix WinNonlin, applying the results of once-daily administration at 200 mg (Certara L.P.) (FIG. 6)."}, "[6]": {"experiment": "Phase 1 single-dose administration study: plasma concentration of Compound (2) by LC/MS/MS after oral Compound (1)", "assay_type": "in vivo, human", "details": "Compound (1) 200 mg C-SEDDS single oral dose"}}, "note": "Where two headings read alike, the source gives them in different places."}
{"smiles": "Cc1cc(=O)n(-c2ccc(C[C@H](NC(=O)c3cc(F)c(NS(=O)(=O)c4ccc(NC(=O)C(C)(C)C)cc4)cc3F)C(=O)O)cn2)c(=O)n1C", "note": "[Compound (2)]", "values": [{"measurement": "IC90", "setting": "[1]; ex vivo, blood of healthy adult males given Compound (1), read-out: IC90 (plasma concentration that causes 90% MAdCAM-1 binding inhibition)", "result": 6.9, "unit": "ng/mL"}, {"measurement": "IC90", "setting": "[1]; read-out: IC90", "result": 6.9, "unit": "ng/mL"}, {"measurement": "IC50", "setting": "[1]; ex vivo, blood of healthy adult males given Compound (1), read-out: IC50 (plasma concentration that causes 50% MAdCAM-1 binding inhibition) (converted)", "result": 2.72, "unit": "nM"}, {"measurement": "correlation of plasma concentration (PK) with MAdCAM-1 binding inhibition rate (PD)", "setting": "[1]; ex vivo, collected blood, FIG. 5", "result": "correlated"}, {"measurement": "increase of plasma concentration (trough value) 12 hours after the second dose on Day 10 of repeated vs single-dose administration", "setting": "[2]; Compound (1) 200 mg C-SEDDS twice daily", "result": "about eightfold"}, {"measurement": "trough concentration relative to IC90", "setting": "[2]; twice-daily administration of C-SEDDS (Compound (1) 200 mg)", "result": "maintained above IC90 (6.9 mg/mL) from the third day of administration"}, {"measurement": "increase of plasma concentration (trough value) after 24 hours, Day 10 of repeated vs single-dose administration", "setting": "[3]; Compound (1) 400 mg L-SEDDS once daily", "result": "more than threefold"}, {"measurement": "trough concentration relative to IC90", "setting": "[3]; once-daily administration of L-SEDDS (Compound (1) 400 mg)", "result": "maintained above IC90 (6.9 mg/mL) from the second day of administration"}, {"measurement": "estimated Cmax on the 10th day of repeated administration", "setting": "[4]", "result": 3.63, "unit": "ng/mL"}, {"measurement": "predicted trough value (200 mg twice daily) relative to measured trough value (400 mg once daily)", "setting": "[5]", "result": "about twice"}, {"measurement": "plasma concentration of Compound (2)", "setting": "[6]; 0.5 h post-dose", "result": "Below quantitation limit"}, {"measurement": "plasma concentration of Compound (2)", "setting": "[6]; 1 h post-dose", "result": "Below quantitation limit"}]}
